Results published in patent US9000025B2, “Autotaxin inhibitors and uses thereof” (Amira Pharmaceuticals, Inc., priority 2010, dated 2015).

Molecular target: T1, autotaxin (ATX) (Homo sapiens, UniProt Q13822)
T1 construct: conditioned medium from the human melanoma cell line, MDA-MB-4355, which endogenously expresses autotaxin; host or cells: MDA-MB-435S human melanoma cells; serum-free conditioned medium, concentrated 20-fold
Experiment: Native Autotaxin Choline Release Assay
Format: biochemical
Conditions: autotaxin in conditioned medium from human melanoma cell line; choline released from LPC; read-out: MDA-MB-435S Assay IC50
Protocol: ATX activity is determined by measuring the amount of choline realeased from the substrate, lyosphophatidylcholine (LPC). […] After reaching confluency, the cells are washed twice with phosphate-buffered saline (PBS) then cultured for 48 hours in phenol-red free, serum-free DMEM containing sodium pyruvate. […] 100 μl of a color mix which contains 4.5 mM 4-aminoantipyrine, 2.7 mM N-ethyl-N-(2-hydroxy-3-sulfopropyl)-m-toluidine, 21 units/ml horseradish peroxidase and 3 units/ml choline oxidase in 50 mM Tris, pH 8, 4.5 mM MgCl2 is added and the incubation continued at 37° C. for 10 minutes before reading the absorbance at 555 nm. The concentration of released choline in the sample is determined from a choline standard curve and is equal to the concentration of LPA produced.

Row | Structure (SMILES) | IC50 [nM]
1 | Cc1[nH]c2ccccc2c1Sc1cccc(CC(=O)O)c1 [Compound 1-1, [3-(2-Methyl-1H-indol-3-ylsulfanyl)-phenyl]-acetic acid] | > 1000
2 | Cc1[nH]c2cc(F)ccc2c1Sc1cccc(CC(=O)O)c1 [Compound 1-2, [3-(6-Fluoro-2-methyl-1H-indol-3-ylsulfanyl)-phenyl]-acetic acid] | > 1000
3 | COc1ccc2c(Sc3cccc(CC(=O)O)c3)c(C)[nH]c2c1 [Compound 1-3, [3-(6-Methoxy-2-methyl-1H-indol-3-ylsulfanyl)-phenyl]-acetic acid] | > 1000
4 | Cc1c(Sc2cccc(CC(=O)O)c2)c2ccccc2n1C [Compound 1-4, [3-(1,2-Dimethyl-1H-indol-3-ylsulfanyl)-phenyl]-acetic acid] | > 1000
5 | Cc1c(Sc2cccc(CC(=O)O)c2)c2ccc(Cl)cc2n1C [Compound 1-5, [3-(6-Chloro-1,2-dimethyl-1H-indol-3-ylsulfanyl)-phenyl]-acetic acid] | > 1000
6 | Cc1c(Sc2cccc(C(=O)O)c2)c2ccc(Cl)cc2n1C [Compound 1-6, 3-(6-Chloro-1,2-dimethyl-1H-indol-3-ylsulfanyl)-benzoic acid] | > 1000
7 | Cc1c(Sc2cccc(CC(=O)O)c2)c2ccc(Cl)cc2n1CC(C)C [Compound 1-7, [3-(6-Chloro-1-isobutyl-2-methyl-1H-indol-3-ylsulfanyl)-phenyl]-acetic acid] | > 1000
8 | COCCn1c(C)c(Sc2cccc(CC(=O)O)c2)c2ccc(Cl)cc21 [Compound 1-8, {3-[6-Chloro-1-(2-methoxy-ethyl)-2-methyl-1H-indol-3-ylsulfanyl]-phenyl}-acetic acid] | 300 to 1000
9 | Cc1c(Sc2cccc(CC(=O)O)c2)c2ccccc2n1Cc1ccccc1 [Compound 1-9, [3-(1-Benzyl-2-methyl-1H-indol-3-ylsulfanyl)-phenyl]-acetic acid] | > 1000
10 | Cc1c(Sc2cccc(C(=O)O)c2)c2ccc(Br)cc2n1Cc1ccccc1 [Compound 1-10, 3-(1-Benzyl-6-bromo-2-methyl-1H-indol-3-ylsulfanyl)-benzoic acid] | 300 to 1000
11 | Cc1c(Sc2cccc(C(=O)O)c2)c2ccc(-c3ccccc3)cc2n1Cc1ccccc1 [Compound 1-11, 3-(1-Benzyl-2-methyl-6-phenyl-1H-indol-3-ylsulfanyl)-benzoic acid] | > 1000
12 | Cc1c(Sc2cccc(C(=O)O)c2)c2ccc(-c3cccnc3)cc2n1Cc1ccccc1 [Compound 1-12, 3-(1-Benzyl-2-methyl-6-pyridin-3-yl-1H-indol-3-ylsulfanyl)-benzoic acid] | > 1000
13 | Cc1c(Sc2cccc(C(=O)O)c2)c2ccc(Cc3ccccc3)cc2n1Cc1ccccc1 [Compound 1-13, 3-(1,6-Dibenzyl-2-methyl-1H-indol-3-ylsulfanyl)-benzoic acid] | > 1000
14 | Cc1c(Sc2cccc(CC(=O)O)c2)c2ccc(Cl)cc2n1Cc1ccccc1 [Compound 1-14, [3-(1-Benzyl-6-chloro-2-methyl-1H-indol-3-ylsulfanyl)-phenyl]-acetic acid] | > 1000
15 | Cc1c(Sc2cccc(C(=O)O)c2)c2ccc(Cl)cc2n1Cc1ccccc1 [Compound 1-15, 3-(1-Benzyl-6-chloro-2-methyl-1H-indol-3-ylsulfanyl)-benzoic acid] | 300 to 1000
16 | Cc1c(Oc2cccc(CC(=O)O)c2)c2ccc(Cl)cc2n1Cc1ccccc1 [Compound 1-16, [3-(1-Benzyl-6-chloro-2-methyl-1H-indol-3-yloxy)-phenyl]-acetic acid] | > 1000
17 | Cc1c(Sc2cccc(CCC(=O)O)c2)c2ccc(Cl)cc2n1Cc1ccccc1 [Compound 1-17, 3-[3-(1-Benzyl-6-chloro-2-methyl-1H-indol-3-ylsulfanyl)-phenyl]-propionic acid] | > 1000
18 | Cc1c(Sc2cccc(C(=O)O)c2)c2ccc(Cl)cc2n1Cc1ccc(F)cc1 [Compound 1-18, 3-[6-Chloro-1-(4-fluoro-benzyl)-2-methyl-1H-indol-3-ylsulfanyl]-benzoic acid] | > 1000
19 | Cc1c(Sc2cccc(C(=O)O)c2)c2ccc(Cl)cc2n1C(C)c1ccccc1 (stereo not shown) [Compound 1-19, 3-[6-Chloro-2-methyl-1-(1-phenyl-ethyl)-1H-indol-3-ylsulfanyl]-benzoic acid] | > 1000
20 | Cc1c(Sc2cccc(C(=O)O)c2)c2ccc(Cl)cc2n1Cc1ccc2ccccc2c1 [Compound 1-20, 3-(6-Chloro-2-methyl-1-naphthalen-2-ylmethyl-1H-indol-3-ylsulfanyl)-benzoic acid] | > 1000

Row | Structure (SMILES) | IC50 [nM]
21 | Cc1c(Sc2cccc(C(=O)O)c2)c2ccc(Cl)cc2n1Cc1cccnc1 [Compound 1-21, 3-(6-Chloro-2-methyl-1-pyridin-3-ylmethyl-1H-indol-3-ylsulfanyl)-benzoic acid] | < 300
22 | Cc1c(Sc2cccc(C(=O)O)c2)c2ccc(Cl)cc2n1Cc1ccc(C(F)(F)F)nc1 [Compound 1-22, 3-[6-Chloro-2-methyl-1-(6-trifluoromethyl-pyridin-3-ylmethyl)-1H-indol-3-ylsulfanyl]-benzoic acid] | > 1000
23 | Cc1c(Sc2cccc(C(=O)O)c2)c2ccc(Cl)cc2n1Cc1ccncc1 [Compound 1-23, 3-(6-Chloro-2-methyl-1-pyridin-4-ylmethyl-1H-indol-3-ylsulfanyl)-benzoic acid] | < 300
24 | Cc1c(Sc2cccc(C(=O)O)c2)c2ccc(Cl)cc2n1Cc1ccccn1 [Compound 1-24, 3-(6-Chloro-2-methyl-1-pyridin-2-ylmethyl-1H-indol-3-ylsulfanyl)-benzoic acid] | 300 to 1000
25 | COc1c(C)cnc(Cn2c(C)c(Sc3cccc(C(=O)O)c3)c3ccc(Cl)cc32)c1C [Compound 1-25, 3-[6-Chloro-1-(4-methoxy-3,5-dimethyl-pyridin-2-ylmethyl)-2-methyl-1H-indol-3-ylsulfanyl]-benzoic acid] | < 300
26 | Cc1c(Sc2cccc(C(=O)O)c2)c2ccc(Cl)cc2n1-c1ccc(-c2ccccc2)cc1 [Compound 1-27, 3-(1-Biphenyl-4-yl-6-chloro-2-methyl-1H-indol-3-ylsulfanyl)-benzoic acid] | 300 to 1000
27 | Cc1c(Sc2cccc(C(=O)O)c2)c2ccc(Cl)cc2n1-c1cccc(-c2ccccc2)c1 [Compound 1-28, 3-(1-Biphenyl-3-yl-6-chloro-2-methyl-1H-indol-3-ylsulfanyl)-benzoic acid] | 300 to 1000
28 | Cc1c(Sc2cccc(C(=O)O)c2)c2ccc(Cl)cc2n1-c1cccc(Cl)c1 [Compound 1-29, 3-[6-Chloro-1-(3-chloro-phenyl)-2-methyl-1H-indol-3-ylsulfanyl]-benzoic acid] | < 300
29 | Cc1c(Sc2cccc(C(=O)O)c2)c2ccc(Cl)cc2n1-c1cccnc1 [Compound 1-30, 3-(6-Chloro-2-methyl-1-pyridin-3-yl-1H-indol-3-ylsulfanyl)-benzoic acid] | < 300
30 | Cc1c(Sc2cccc(C(=O)O)c2)c2ccc(Cl)cc2n1-c1ccccn1 [Compound 1-31, 3-(6-Chloro-2-methyl-1-pyridin-2-yl-1H-indol-3-ylsulfanyl)-benzoic acid] | 300 to 1000
31 | Cc1c(Sc2cccc(C(=O)O)c2)c2ccc(Cl)cc2n1-c1ccc(C(F)(F)F)nc1 [Compound 1-32, 3-[6-Chloro-2-methyl-1-(6-trifluoromethyl-pyridin-3-yl)-1H-indol-3-ylsulfanyl]-benzoic acid] | 300 to 1000
32 | COc1ccc(-n2c(C)c(Sc3cccc(C(=O)O)c3)c3ccc(Cl)cc32)cn1 [Compound 1-33, 3-[6-Chloro-1-(6-methoxy-pyridin-3-yl)-2-methyl-1H-indol-3-ylsulfanyl]-benzoic acid] | < 300
33 | Cc1ccc(-n2c(C)c(Sc3cccc(C(=O)O)c3)c3ccc(Cl)cc32)cn1 [Compound 1-34, 3-[6-Chloro-2-methyl-1-(6-methyl-pyridin-3-yl)-1H-indol-3-ylsulfanyl]-benzoic acid] | < 300
34 | Cc1c(Sc2cccc(CC(=O)O)c2)c2ccc(Cl)cc2n1-c1cccnc1 [Compound 1-35, [3-(6-Chloro-2-methyl-1-pyridin-3-yl-1H-indol-3-ylsulfanyl)-phenyl]-acetic acid] | < 300
35 | CCOc1ccc(-n2c(C)c(Sc3cccc(C(=O)O)c3)c3ccc(Cl)cc32)cn1 [Compound 1-36, 3-[6-Chloro-1-(6-ethoxy-pyridin-3-yl)-2-methyl-1H-indol-3-ylsulfanyl]-benzoic acid] | < 300
36 | COc1cncc(-n2c(C)c(Sc3cccc(C(=O)O)c3)c3ccc(Cl)cc32)c1 [Compound 1-37, 3-[6-Chloro-1-(5-methoxy-pyridin-3-yl)-2-methyl-1H-indol-3-ylsulfanyl]-benzoic acid] | < 300
37 | Cc1c(Sc2cccc(C(=O)O)c2)c2ccc(Cl)cc2n1-c1cncnc1 [Compound 1-38, 3-(6-Chloro-2-methyl-1-pyrimidin-5-yl-1H-indol-3-ylsulfanyl)-benzoic acid] | < 300
38 | Cc1c(Sc2cccc(C(=O)O)c2)c2ccc(Cl)cc2n1-c1cnn(C)c1 [Compound 1-39, 3-[6-Chloro-2-methyl-1-(1-methyl-1H-pyrazol-4-yl)-1H-indol-3-ylsulfanyl]-benzoic acid] | < 300
39 | COc1ccc(C(=O)O)cc1Sc1c(C)n(-c2cccnc2)c2cc(Cl)ccc12 [Compound 1-40, 3-(6-Chloro-2-methyl-1-pyridin-3-yl-1H-indol-3-ylsulfanyl)-4-methoxy-benzoic acid] | > 1000
40 | COc1ccc(C(=O)O)cc1Sc1c(C)n(-c2cnn(C)c2)c2cc(Cl)ccc12 [Compound 1-41, 3-[6-Chloro-2-methyl-1-(1-methyl-1H-pyrazol-4-yl)-1H-indol-3-ylsulfanyl]-4-methoxy-benzoic acid] | > 1000
